A word on the Kd: it is the equilibrium constant for the complex coming apart.

*1 amine or outer side, *2 acyl side, *3 side chain or, on linkers, in order; H or OH if unused. Where a SMILES comes first, the peptide text is derived from it. Bridges are numbered along the chain shown (N, C = ends). [ ]: non-standard residue; d: D form. The star is where a group is joined. X1 = CC[C@H](C)[C@@H](N[*:1])[C@@H](O)CC(=O)O[C@H](C(=O)[C@H](C)C(=O)[*:2])C(C)C; NMeY = CN[C@@H](Cc1ccc(O)cc1)C(=O)O; dNMeL = CN[C@H](CC(C)C)C(=O)O; Pyruvoyl = CC(=O)C(=O)*

The subject of assay [1] is subcellular and chromatographic fractions of K-562 cell lysate. In words: Binding of [14C]-plitidepsin to K-562 lysate fractions. Conditions: 500 nM [14C]-plitidepsin with or without 10 μM unlabeled plitidepsin, 1 h, room temperature, subcellular fractions. The protocol: Figure 4 Identification of the plitidepsin-binding protein in a K-562 cells lysate. […] In the horizontal axis “P” and “S” mean “pellet” and “supernatant”, respectively, with the figure aside denoting the relative centrifugal force (in thousands of g) used to obtain such fraction. Data (in dpm per mg of protein) represent the mean of three independent samples with error bars showing S.D. * means p < 0.05. (C) Anion-exchange chromatography on DEAE, flow rate 5 mL/min. (D) Cation-exchange chromatography on SP, flow rate 2.5 mL/min. (E) Size exclusion chromatography on Superdex 200, flow rate 4 mL/min. Representative fractions (4-mL) from each portion of the eluates were analyzed for their binding to [^14C]-plitidepsin in the presence (grey bars, non-specific binding) or absence (black bars, total binding) of a 20-fold excess of unlabeled drug. Only fractions showing significant specific binding to the radioligand were pooled and progressed to the next chromatographic step. In all cases absorbance is expressed in mAU and conductivity in mS/cm.
The rest of the peptides detected in this material corresponded to fragments whose sequences are common to both isoforms, thus discarding the presence of any other protein.
After 1 h incubation at room temperature 400 μL of each tube were withdrawn and processed as described above.

Assay [2] deals with eEF1A1 purified from rabbit liver (Oryctolagus cuniculus, UniProt P68105). Conditions: saturation binding, [14C]-plitidepsin, 1 h, room temperature, triplicate, Swillens fit (Supplementary Figure 4).
Sequence of eEF1A1 purified from rabbit liver (P68105 whole entry, canonical isoform): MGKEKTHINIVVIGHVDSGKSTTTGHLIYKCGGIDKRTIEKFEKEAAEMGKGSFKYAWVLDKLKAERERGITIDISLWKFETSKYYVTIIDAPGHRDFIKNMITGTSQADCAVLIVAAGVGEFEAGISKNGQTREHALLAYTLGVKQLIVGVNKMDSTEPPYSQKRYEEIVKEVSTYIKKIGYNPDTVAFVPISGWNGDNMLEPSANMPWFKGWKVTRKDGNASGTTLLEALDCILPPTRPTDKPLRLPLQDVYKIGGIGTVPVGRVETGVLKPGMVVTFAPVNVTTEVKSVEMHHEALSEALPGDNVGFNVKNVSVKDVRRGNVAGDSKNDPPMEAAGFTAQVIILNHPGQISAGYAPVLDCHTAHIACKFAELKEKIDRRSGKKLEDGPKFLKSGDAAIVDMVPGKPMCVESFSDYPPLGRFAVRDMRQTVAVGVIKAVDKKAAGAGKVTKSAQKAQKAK
Description: All samples in binding assays were tested in triplicate. […] After 1 h incubation at room temperature, 450 μL were withdrawn, filtered through GF/C filters (Millipore, Bedford, CA) and washed three times with the same buffer used for the incubation. Filters were then removed, dried and their radioactivity was finally counted as a measurement of total (specific and non-specific) bound drug. […] Scintillation counting was transformed into concentration values considering the specific activity of the radioligand and the sample volume. The concentration of bound radioligand was related to the total amount of radioligand in the sample using the expression derived by Swillens[12] to account for ligand depletion when the concentration of protein was similar to that of radioligand:
was purified from rabbit liver as described in ( 48) . Protein and radioligand wer e
incubated for 1 h at room temperature and samples were processed as described in the
The next assay concerns both eEF1A isoforms. Conditions: cited from earlier work. From the text: (§1) Until now, very few chemical entities have been identified as modulators of eEF1A2. […] Other authors also reported the discovery of several flavonoids as well as phenanthridones (e.g ...
Another assay has as its system protein synthesis. Conditions: cited from earlier work.
A further assay addresses eEF1A-ribosome complex. Conditions: binding to the eEF1A-ribosome complex; cited from earlier work.
Description: as §1

Assay [3] deals with EF1A isolated from rabbit reticulocytes. Conditions: cited from earlier work.
Description: as §1

As for `CC[C@H](C)[C@H]1NC(=O)[C@@H](NC(=O)[C@@H](CC(C)C)N(C)C(=O)[C@@H]2CCCN2C(=O)C(C)=O)[C@@H](C)OC(=O)[C@H](Cc2ccc(OC)cc2)N(C)C(=O)[C@@H]2CCCN2C(=O)[C@H](CC(C)C)NC(=O)[C@@H](C)C(=O)[C@H](C(C)C)OC(=O)C[C@@H]1O` [[^14C]-plitidepsin] (Pyruvoyl-P[dNMeL]T[X1]LP[NMeY](Me); ester 3-C (inferred)), in assay [1] (pellets), the binding to pellets result is given as “non-specifically”. For the same compound, the “binding to soluble fractions” value in assay [1] (soluble) was “retained by the soluble fractions”. The same compound registered a Kd in assay [2] of 0.183 ± 0.032 µM.

In the case of `O=C1N[C@@H]2C(=C[C@H](O)[C@@H](O)[C@H]2O)c2cc3c(c(O)c21)OCO3` [narciclasine], the “binding to eEF1A isoforms” value in the assay with both eEF1A isoforms is recorded as “selectively bind to both eEF1A isoforms”.

Consider `O=C1N[C@H]2[C@H](O)[C@H](O)[C@@H](O)[C@H](O)[C@@H]2c2cc3c(c(O)c21)OCO3` [pancratistatine], for which, in the assay on both eEF1A isoforms, the “binding to eEF1A isoforms” value is “selectively bind to both eEF1A isoforms”.

On to didemnin B, for which the protein synthesis inhibition entry in the assay with protein synthesis was “only at μM concentrations”. Further, the Kd was 4 µM at eEF1A-ribosome complex and 200 µM in assay [3] (binding to EF1A). Moreover, the “interaction with eEF1A” value in assay [3] (isoform not specified) is given as “interact with eEF1A”.

(Values after PMC5054363 (Scientific Reports, 2016).)
